According to ChEMBL document CHEMBL1155846, “Selectivity determinants of inhibitor binding to human 20alpha-hydroxysteroid dehydrogenase: crystal structure of the enzyme in ternary complex with coenzyme and the potent inhibitor 3,5-dichlorosalicylic acid” (J Med Chem, 2008):

How the values were obtained:
[1] = target: T1, Aldo-keto reductase family 1 member C3 (Homo sapiens, UniProt P42330); assay: Inhibition of human recombinant AKR1C3
T1 sequence (P42330 whole entry): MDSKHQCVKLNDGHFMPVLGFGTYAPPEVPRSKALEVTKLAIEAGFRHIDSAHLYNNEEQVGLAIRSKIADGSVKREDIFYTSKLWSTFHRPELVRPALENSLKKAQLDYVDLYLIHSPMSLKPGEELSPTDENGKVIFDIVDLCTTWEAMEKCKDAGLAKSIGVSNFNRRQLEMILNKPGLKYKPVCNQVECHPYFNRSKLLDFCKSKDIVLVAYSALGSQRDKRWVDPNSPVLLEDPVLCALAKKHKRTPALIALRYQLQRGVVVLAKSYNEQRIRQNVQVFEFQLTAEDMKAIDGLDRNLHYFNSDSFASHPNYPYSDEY

[2] = target: T2, Aldo-keto reductase family 1 member C4 (Homo sapiens, UniProt P17516); assay: Inhibition of human recombinant AKR1C4
T2 sequence (P17516 whole entry): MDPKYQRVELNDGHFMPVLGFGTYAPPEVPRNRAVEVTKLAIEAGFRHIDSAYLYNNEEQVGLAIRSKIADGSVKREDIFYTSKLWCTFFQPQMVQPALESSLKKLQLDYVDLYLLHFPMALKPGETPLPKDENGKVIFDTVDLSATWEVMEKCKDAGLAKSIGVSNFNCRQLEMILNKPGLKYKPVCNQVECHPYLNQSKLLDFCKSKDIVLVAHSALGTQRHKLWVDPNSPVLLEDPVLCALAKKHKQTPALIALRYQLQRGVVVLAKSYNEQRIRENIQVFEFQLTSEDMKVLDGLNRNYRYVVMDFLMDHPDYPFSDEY

- Ki [1]: 94 µM
- Ki [2]: 24 µM
Compound: O=C(O)c1cc(Cl)cc(Cl)c1O
